Reference: BindingDB's records for doi:10.1111/cbdd.12861 (Quaid-i-Azam University, 2017)
Values belong to the compound of their own block, whether it stands above or below them.

Experiments:
[1] = target: T1, Alkaline phosphatase, tissue-nonspecific isozyme (Bos taurus, UniProt P09487); assay: Alkaline Phosphatase Inhibition Assay; settings: pH 9.8; 37 °C
T1 sequence (P09487 whole entry): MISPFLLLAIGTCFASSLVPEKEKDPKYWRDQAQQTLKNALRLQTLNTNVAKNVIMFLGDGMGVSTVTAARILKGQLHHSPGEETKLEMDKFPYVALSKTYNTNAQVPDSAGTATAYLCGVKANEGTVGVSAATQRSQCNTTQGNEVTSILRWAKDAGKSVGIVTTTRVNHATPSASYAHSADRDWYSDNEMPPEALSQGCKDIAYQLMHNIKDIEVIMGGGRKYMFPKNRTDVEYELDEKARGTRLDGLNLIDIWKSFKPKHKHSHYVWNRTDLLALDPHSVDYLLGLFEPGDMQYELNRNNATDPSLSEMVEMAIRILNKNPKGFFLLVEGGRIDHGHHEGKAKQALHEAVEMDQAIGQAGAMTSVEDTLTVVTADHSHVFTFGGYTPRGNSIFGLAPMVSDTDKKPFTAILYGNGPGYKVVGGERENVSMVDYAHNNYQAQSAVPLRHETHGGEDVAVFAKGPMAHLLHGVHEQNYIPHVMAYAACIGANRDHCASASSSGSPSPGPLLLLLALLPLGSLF
Procedure: (§1) The assay conditions were optimized with some changes in formerly reported spectrophotometric method. The composition of assay buffer of pH 9.8 was as: […], 0.05 mM ZnCl2 and 2.5 mM MgCl2. All compounds were tested at the initial concentration of 0.2 mM. A total assay volume of 50 μL contained 10 μL of tested compound, followed by the addition of 20 μL of either b-TNAP (1:800 times diluted enzyme in assay buffer) or 20 μL of c-IAP (1:800 times diluted enzyme in same assay buffer). After incubating the reaction mixture for 3-5 minutes at 37 °C, pre-read was taken by measuring luminescence with the help of microplate reader (BioTek FLx800, Instruments, Inc. USA). After that, 20 μL of substrate (CDP-Star) at the concentration of (110 μM) was added to the reaction mixture. Then the reaction mixture was again incubated for 15-20 min at 37 °C and after read was taken to measure the change in the luminescence. Total activity control (without inhibitor or negative control) was used for comparison of the activity of each test compound. L-phenylalanine (at concentration of 4 mM per well) and Levamisole (at concentration of 2 mM per well) were used as reference standards against calf intestinal alkaline phosphatase (c-IAP) and bovine tissue-nonspecific alkaline phosphatase (b-TNAP) respectively.

[2] = target: Intestinal-type alkaline phosphatase (Bos taurus, UniProt P19111); assay: Alkaline Phosphatase Inhibition Assay; settings: pH 9.8; 37 °C
Procedure: as §1

5'-nucleotidase [3] = target: 5'-nucleotidase (Homo sapiens, UniProt P21589); assay: Ecto-5'-Nucleotidase Inhibition Assay; settings: pH 7.4; 37 °C
Procedure: (§2) The enzymatic assay of both human and rat ecto-5'-nucleotidase were performed with slight modifications in the previously described method. […] Aliquots of 50 μL of each reaction mixture was transferred into CE mini vial and hydrodynamically injected into the capillary by using pressure of 0.5 psi for 5s. The electrosmatic separation of substrate and product peaks occurred by applying voltage of 15 kV. The concentration of product i.e. adenosine was estimated by calculating the area under its absorbance peak at 260 nm.

5'-nucleotidase [4] = target: T2, 5'-nucleotidase (Rattus norvegicus, UniProt P21588); assay: Ecto-5'-Nucleotidase Inhibition Assay; settings: pH 7.4; 37 °C
T2 sequence (P21588 whole entry): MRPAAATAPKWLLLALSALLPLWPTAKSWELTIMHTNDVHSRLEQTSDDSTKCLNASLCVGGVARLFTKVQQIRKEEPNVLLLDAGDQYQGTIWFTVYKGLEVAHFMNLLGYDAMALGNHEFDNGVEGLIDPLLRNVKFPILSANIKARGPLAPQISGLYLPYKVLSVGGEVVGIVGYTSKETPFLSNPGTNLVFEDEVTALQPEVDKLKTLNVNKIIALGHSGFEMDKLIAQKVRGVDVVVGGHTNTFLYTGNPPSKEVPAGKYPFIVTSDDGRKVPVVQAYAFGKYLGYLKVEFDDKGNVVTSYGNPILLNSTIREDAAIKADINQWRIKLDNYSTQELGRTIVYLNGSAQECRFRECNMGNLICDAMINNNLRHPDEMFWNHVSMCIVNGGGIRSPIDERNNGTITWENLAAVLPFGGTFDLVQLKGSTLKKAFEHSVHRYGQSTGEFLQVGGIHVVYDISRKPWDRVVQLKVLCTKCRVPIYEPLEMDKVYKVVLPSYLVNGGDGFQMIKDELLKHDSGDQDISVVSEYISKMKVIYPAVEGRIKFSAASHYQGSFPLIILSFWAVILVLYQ
Procedure: as §2

5'-nucleotidase (Homo sapiens, UniProt P21589), sequence (P21589 whole entry): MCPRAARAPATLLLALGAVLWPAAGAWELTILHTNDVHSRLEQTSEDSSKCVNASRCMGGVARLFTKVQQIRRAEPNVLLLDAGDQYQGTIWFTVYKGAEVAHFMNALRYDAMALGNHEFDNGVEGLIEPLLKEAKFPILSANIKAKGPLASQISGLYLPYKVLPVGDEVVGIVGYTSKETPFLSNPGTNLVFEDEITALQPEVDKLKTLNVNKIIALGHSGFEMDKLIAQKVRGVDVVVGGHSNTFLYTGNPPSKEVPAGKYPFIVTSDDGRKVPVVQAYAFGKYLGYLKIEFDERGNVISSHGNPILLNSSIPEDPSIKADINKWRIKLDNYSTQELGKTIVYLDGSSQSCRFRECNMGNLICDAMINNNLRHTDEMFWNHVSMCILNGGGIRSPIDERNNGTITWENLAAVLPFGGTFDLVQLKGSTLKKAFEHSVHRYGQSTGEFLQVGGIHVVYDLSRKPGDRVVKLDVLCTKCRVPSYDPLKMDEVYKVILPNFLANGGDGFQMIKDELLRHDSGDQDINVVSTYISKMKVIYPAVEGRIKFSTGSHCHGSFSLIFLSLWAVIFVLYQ
Intestinal-type alkaline phosphatase, sequence (P19111 whole entry): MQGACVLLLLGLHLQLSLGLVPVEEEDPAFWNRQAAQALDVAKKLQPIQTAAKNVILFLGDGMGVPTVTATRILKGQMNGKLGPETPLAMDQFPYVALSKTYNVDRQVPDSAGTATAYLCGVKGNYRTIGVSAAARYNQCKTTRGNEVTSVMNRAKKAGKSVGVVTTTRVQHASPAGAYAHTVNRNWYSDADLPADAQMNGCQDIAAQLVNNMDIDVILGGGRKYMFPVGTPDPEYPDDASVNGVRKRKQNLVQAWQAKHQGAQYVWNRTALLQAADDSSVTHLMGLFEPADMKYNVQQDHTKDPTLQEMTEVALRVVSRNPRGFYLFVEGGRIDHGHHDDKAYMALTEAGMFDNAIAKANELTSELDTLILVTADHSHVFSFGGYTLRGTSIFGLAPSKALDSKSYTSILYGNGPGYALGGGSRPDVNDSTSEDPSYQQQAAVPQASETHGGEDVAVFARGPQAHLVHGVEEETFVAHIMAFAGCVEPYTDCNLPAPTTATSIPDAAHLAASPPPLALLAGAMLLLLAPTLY

- IC50 [1]: 350 nM
- IC50 [2]: 1920 nM
Compound: COc1cc(/C=N/NC(=O)c2ccncc2)ccc1O [(E)-N'-(4'-Hydroxy-3-methoxybenzylidene)isonicotinohydrazide (3g)]

Compound: O=C(N/N=C/c1ccncc1)c1ccncc1 [(E)-N'-(Pyridin-4'-ylmethylene)isonicotinohydrazide (3h)]
- IC50 [2]: 2460 nM
- IC50 (5'-nucleotidase [3]): 2120 nM
- IC50 (5'-nucleotidase [4]): 2890 nM

Compound: O=C(N/N=C/c1ccc(F)cc1)c1ccncc1 [(E)-N'-(4'-Fluorobenzylidene)isonicotinohydrazide (3c)]
- IC50 [1]: 2260 nM
- IC50 [2]: 17500 nM
- IC50 (5'-nucleotidase [3]): 6760 nM
- IC50 (5'-nucleotidase [4]): 440 nM

Compound: O=C(N/N=C/c1ccc(Cl)cc1)c1ccncc1 [(E)-N'-(4'-Chlorobenzylidene)isonicotinohydrazide (3a)]
- IC50 [2]: 670 nM
- IC50 (5'-nucleotidase [3]): 1670 nM
- IC50 (5'-nucleotidase [4]): 1080 nM

Compound: O=C(N/N=C/c1ccc(Br)cc1)c1ccncc1 [(E)-N'-(4'-Bromobenzylidene)isonicotinohydrazide (3b)]
- IC50 [1]: 4130 nM
- IC50 [2]: 9720 nM
- IC50 (5'-nucleotidase [3]): 230 nM
- IC50 (5'-nucleotidase [4]): 7130 nM

Compound: O=C(N/N=C/c1cccc([N+](=O)[O-])c1)c1ccncc1 [(E)-N'-(3'-Nitrobenzylidene)isonicotinohydrazide (3f)]
- IC50 [1]: 1820 nM
- IC50 [2]: 7340 nM
- IC50 (5'-nucleotidase [3]): 1900 nM
- IC50 (5'-nucleotidase [4]): 210 nM

Compound: O=C(N/N=C/c1ccccc1O)c1ccncc1 [(E)-N'-(2'-hydroxybenzylidene)isonicotinohydrazide (3e)]
- IC50 [2]: 1440 nM
- IC50 (5'-nucleotidase [3]): 1340 nM
- IC50 (5'-nucleotidase [4]): 450 nM

Compound: COc1ccc(/C=N/NC(=O)c2ccncc2)cc1 [(E)-N'-(4'-Methoxybenzylidene)isonicotinohydrazide (3d)]
- IC50 [1]: 560 nM
- IC50 [2]: 1740 nM
- IC50 (5'-nucleotidase [3]): 13800 nM
- IC50 (5'-nucleotidase [4]): 310 nM

Compound: C/C(=N\NC(=O)c1ccncc1)N1N=C(c2ccc(F)cc2)CC1c1ccccc1 (stereo not given) [(E)-N'-(1-(3-(4-fluorophenyl)-5-phenyl-4,5-dihydro-1H-pyrazol-1yl)ethylidene)isonicotino hydrazide (3j)]
- IC50 [1]: 1060 nM
- IC50 [2]: 3980 nM
- IC50 (5'-nucleotidase [3]): 190 nM
- IC50 (5'-nucleotidase [4]): 360 nM

Compound: O=C(N/N=C/c1cccnc1)c1ccncc1 [(E)-N'-(Pyridin-3'-ylmethylene)isonicotinohydrazide (3i)]
- IC50 [1]: 2430 nM
- IC50 [2]: 1460 nM
- IC50 (5'-nucleotidase [3]): 210 nM
- IC50 (5'-nucleotidase [4]): 3010 nM
